Key:
BSA = target: T1, BSA (Bos taurus, UniProt P02769); test: BSA binding study (tryptophan emission quenching); parameters: species or system bovine
T1 construct: purchased Himedia Chemical Limited
Procedure: Serum albumin has the capacity to bind with the ligands and helps in the uptake of the drug inside the cells. BSA is commonly used in this study because of its similar structural homology to HSA. […] A significant quenching of BSA fluorescence can be observed upon interaction with drug molecule.[27] The BSA solution of 3 μM concentration was titrated against 10–100 μM of the drug 7e upon excitation of 280 nm. […] The Stern–Volmer constant (KBSA), quenching constant (Kq), binding constant (K), a number of binding sites (n) were calculated from the eqn (5) and (6) (Fig. S4b and c ^†). The Kq values of the newly synthesized compounds were in the order of 10^12 M^−1 s^−1 which were higher enough than maximum scatter collision quenching constant (2.0 × 10^10 M^−1 s^−1) of BSA quenchers (Table 2).[28] High potency of these complexes in cancer cells may be attributed by the strong binding with serum albumin which overcomes the drug resistance by GSH. […]
BSA is a carrier protein that increases solubility of the drug in the blood by binding to it.
Fluorescence spectroscopy is an efficient method to study the interaction of the BSA with the compound by quenching mechanism. The binding of the complexes to the bovine serum albumin (BSA) were measured by tryptophan emission quenching study. The complex […]
solutions (0-60 μM) were gradually added to the solution of BSA (2 μM) in 5 mM Tris- […]
HCl/NaCl buffer (pH 7.2) and the quenching of the emission signals at 350 nm (λex = 295 […]
nm) were recorded. The emission intensity of BSA decreases gradually on increasing the […]
complex concentration. The quenching constant (KBSA) has been determined quantitatively by […]
using Stern-Volmer equation. Stern-Volmer plots of I0/I vs. [complex] were made using the […]
corrected fluorescence data taking into account the effect of dilution. Linear fit of the data […]
Where I0 and I are the emission intensities of BSA in the absence and in the presence of […]
quencher of concentration [Q], gave the quenching constant (K BSA) using Origin Pro 8.5 […]
software. kq is the quenching rate constant, τ0 is the average lifetime of the tryptophan in BSA […]
without quencher reported as 1 x 10-8 sec. The binding propensity of the quenchers with […]
respective serum proteins were expressed by Scatchard equation. For such static quenching […]
interaction, the binding constant (K) and the number of binding sites (n) can be determined […]
according to the Scatchard equation: […]
The linear fitting of the log (I0-I)/I vs. log [Q] plot gives values of n and K from slope and […]
2.8. Stability study, Solubility study, metabolic stability study, Caco-2 permeability study
%Nominal = Mean of calculated concentration of test samples ×100 ….(7) […]
Calculated concentration from calibration curve
CL = k × volume of reaction mixture (mL) … (8) […]
intr protein content (mg)

CT-DNA = test: Ethidium bromide displacement assay (fluorescence); assay type: binding
Procedure: DNA is one of the key target for cancer therapy. The drug molecules bind with the DNA by three major modes (i) electrostatic interactions with the DNA double helix (ii) binding to grooves of DNA (iii) intercalation between the base pairs of DNA.[25] The titration in UV was performed by increasing concentration of DNA from 10–60 μM into a fixed drug concentration (20 μM). The intra-ligand absorption bands around 290–350 nm (π–π* transition) were used in observation of the interaction of DNA and compound 7e (Fig. S3a ^†). There was a hypochromic shift with a slight blue shift in the wavelength of compound 7e was observed which concluded that complex 7e bind to DNA through intercalative binding mode.[26] […] Ethidium bromide, a nonspecific intercalator, gives a strong fluorescence while intercalating DNA base pairs. This enhanced fluorescence can be quenched by another chemical moiety which can competitively replace EtBr and binds to the same site.[27] […] The original fluorescence intensity of EtBr–DNA complex is rapidly quenched by increasing the concentration of compound 7e (Fig. S3c ^†). […]
EtBr displacement is periodically used as a diagnostic approach to determine the capability of compounds to bind with DNA [4]. EtBr emits intense fluorescence when it intercalates with CT-DNA, whereas in its free form in buffer (5 mM Tris-HCl/50mM NaCl buffer, pH 7.4) there is no apparent florescence emission. […] The binding capacity of drug complex with CT-DNA was estimated by quenching of fluorescence intensity. […]
Κapp ×[Complex]50 = ΚEtBr ×[EtBr ](3) where Kapp is the apparent binding constant of the complex, [Complex]50 is the concentration of the complex at 50% fluorescence quenching of DNA-bound ethidium bromide, KEB is the binding constant of the EB (KEtBr = 1.0 x 107 M-1), and [EB] is the concentration of ethidium bromide (8 μM). The Stern-Volmer quenching constant (K SV) has been determined quantitatively by using Stern-Volmer equation. Stern-Volmer plots of I0/I vs. [complex] were made using the corrected fluorescence data taking into account the effect of dilution. […]

[1] = Metabolic stability in rat liver microsomes; assay type: in vitro ADME; conditions: for % Metabolism in 30 min: 0.5 μM, 0.5 mg ml^−1 protein, NADPH, 37 °C; for half-life at 0.5 μM: rat, liver microsomes
Procedure: The in vitro metabolic rate of 7g was determined in liver microsomes and the intrinsic clearance (CLintr) was estimated. The study was conducted at 0.5 μM substrate concentration and microsomal protein concentration of 0.5 mg ml^−1. Metabolic stability study in the presence of microsomes and cofactor NADPH was performed at 37 °C, 60 rpm for 30 min time duration. NADPH free control incubation was performed simultaneously for 30 min to understand if there are any non-enzymatic metabolism related issues. […] Intrinsic clearance as given in Table 6, was calculated using eqn (8). ^†

T1 sequence (P02769 25-607): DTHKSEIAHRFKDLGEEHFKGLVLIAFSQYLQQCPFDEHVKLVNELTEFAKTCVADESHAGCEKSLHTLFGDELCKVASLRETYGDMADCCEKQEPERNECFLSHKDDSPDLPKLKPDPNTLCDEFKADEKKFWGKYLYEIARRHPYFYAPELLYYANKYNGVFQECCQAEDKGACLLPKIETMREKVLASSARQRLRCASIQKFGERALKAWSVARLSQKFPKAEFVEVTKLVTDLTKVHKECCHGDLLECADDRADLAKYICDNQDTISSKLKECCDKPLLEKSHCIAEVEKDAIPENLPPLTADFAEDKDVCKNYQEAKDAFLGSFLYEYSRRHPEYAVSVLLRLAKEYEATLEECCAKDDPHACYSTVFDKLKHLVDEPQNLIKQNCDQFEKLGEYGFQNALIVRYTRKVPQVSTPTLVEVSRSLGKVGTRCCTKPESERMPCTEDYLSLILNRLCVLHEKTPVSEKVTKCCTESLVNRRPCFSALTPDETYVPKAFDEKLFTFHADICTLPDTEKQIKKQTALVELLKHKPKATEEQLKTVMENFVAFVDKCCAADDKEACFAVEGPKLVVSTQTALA

| CLint ([1]; RLM set 1) [μl per min per mg protein] | % Metabolism in 30 min ([1]; RLM set 1) [%] | CLint ([1]; RLM set 2) [μl per min per mg protein] | % Metabolism in 30 min ([1]; RLM set 2) [%] | half-life at 0.5 μM ([1]; RLM set 1) [h] | half-life at 0.5 μM ([1]; RLM set 2) [h] | Compound | K BSA, Stern–Volmer quenching constant (BSA) [M⁻¹] | K q, quenching rate constant (BSA) [M⁻¹ s⁻¹] | quenching of BSA fluorescence (BSA; BSA 3 μM titrated with 10–100 μM drug, excitation 280 nm) | n, number of binding sites (BSA; Scatchard equation) | Kd (BSA; Scatchard equation, read-out: K, binding constant with BSA (converted)) [mM] | K sv, Stern–Volmer quenching constant (CT-DNA; EtBr–DNA fluorescence quenching) [M⁻¹] | [7e]50, concentration at 50% fluorescence quenching of DNA-bound ethidium bromide (CT-DNA; [DNA] = 120 μM, [EtBr] = 8 μM, Tris HCl/NaCl buffer pH 7.2) [µM] | K app, apparent DNA binding constant (CT-DNA; competitive displacement of EtBr, fluorescence) [M⁻¹] |
| --- | --- | --- | --- | --- | --- | --- | --- | --- | --- | --- | --- | --- | --- | --- |
|  |  |  |  |  |  | Clc1cc2nc(COc3ccccc3-c3nc4ccccc4s3)c(COc3ccccc3-c3nc4ccccc4s3)nc2cc1Cl [Compound 7e] | 10200 | 1.02e+12 | more than 50% | 1.87 | 3.82 | 5500 | 140 | 570000 |
| 4 | 12 | 14 | 19 | 5.85 | 1.69 | COc1ccc2nc(COc3ccccc3-c3nc4ccccc4s3)c(COc3ccccc3-c3nc4ccccc4s3)nc2c1 [Compound 7g, 2,2'-((((6-methoxyquinoxaline-2,3-diyl)bis(methylene))bis(oxy))bis(2,1-phenylene))bis(benzo[d]thiazole)] |  |  |  |  |  |  |  |  |
